From patent US20230173090A1, “COMPOSITIONS AND METHODS FOR MODULATING DOPAMINE RECEPTOR ACTIVITY” (The Regents of the University of California, priority 2020, published 2023)

Columns and labels:
D1R = target: T1, D1R (Homo sapiens, UniProt P21728); assay: D1R-mediated GIRK channel activation assay in HEK293T cells (whole-cell electrophysiology); type: cell-based; settings: % of photocurrent in the absence of LE300
T1 construct: expressed in transfected cells; host or cells: HEK293T (A1, A2); HEK293 (A26)
T1 sequence (P21728 whole entry): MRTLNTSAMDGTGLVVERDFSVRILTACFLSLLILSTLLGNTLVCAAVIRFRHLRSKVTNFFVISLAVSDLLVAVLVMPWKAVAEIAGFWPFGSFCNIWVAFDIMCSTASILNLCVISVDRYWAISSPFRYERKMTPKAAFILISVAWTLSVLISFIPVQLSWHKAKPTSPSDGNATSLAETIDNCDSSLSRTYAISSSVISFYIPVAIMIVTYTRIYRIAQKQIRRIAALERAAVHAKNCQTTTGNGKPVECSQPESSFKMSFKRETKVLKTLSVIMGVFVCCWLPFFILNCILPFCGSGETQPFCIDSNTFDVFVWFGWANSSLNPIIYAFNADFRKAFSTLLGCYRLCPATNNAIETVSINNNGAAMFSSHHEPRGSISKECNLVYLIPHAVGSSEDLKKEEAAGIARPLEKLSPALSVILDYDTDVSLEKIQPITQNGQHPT
Experimental: All constructs were cloned into mammalian expression vectors. For the receptor mediated-GIRK activation assay, HEK293T cells were seeded onto 18 mm coverslips and transiently transfected overnight with Lipofectamine 2000 and the following constructs: a receptor, a variant of the membrane-anchor (M; 0.7 µg), GIRK1(F137S) (0.7 µg), and tdTomato (0.2 µg). […] D1R, D5R, or opto-D1R were cotransfected with Gαis13 (0.35 µg), D3R with GαoA (0.7 µg), and M1R or mGluR1 with Gαiq5. Transfected cells were used for electrophysiology, imaging, or flow cytometry experiments.
HEK293T cells were sparsely seeded and maintained in DMEM (Invitrogen) with 10% fetal bovine serum on poly-L-lysine-coated coverslips at 37° C. and 5% CO2. HEK293T cells were voltage clamped in whole-cell configuration 16-48 hours after transfection. […] GluK2 electrophysiology was performed in the presence of 0.3 mg/mL concanavalin A to prevent desensitization. […] Cells were voltage clamped to -60 or -80 mV using an Axopatch 200A (Molecular Devices) amplifier.
For all experiments, compounds were applied using a gravity-driven perfusion system and illumination was applied to the entire field of view using a Polychrome V monochromator (TILL Photonics) through a 20x objective (maximum 0.05 mW/mm^2 at 370 nm and 0.5 mW/mm^2 at 460 nm or 473 nm) or a DG4 (Sutter) through a 20x objective (maximum 0.06 mW/mm^2 at 370 nm and 0.6 mW/mm^2 at 445 nm). pClamp software was used for both data acquisition and control of illumination.
The selection criteria for electrophysiological experiments are that a cell (i) expresses the fluorescent protein transfection marker, and (ii) responds to agonist, indicating the presence of either receptor and GIRK or an LGIC. Cells were not excluded unless the recording was of poor quality (e.g., unstable baseline).
Data were analyzed using GraphPad Prism (GraphPad), Clampfit (Axon instruments), Origin (OriginLab), MATLAB, or ImageJ software. For dose-response curves, data were normalized to vehicle (0%) and DA (100%) and nonlinear regression analysis was performed using the sigmoidal dose-response function in GraphPad Prism. Statistical analyses were performed using GraphPad Prism. All values reported are mean ± S.E.M.
FIGS. 9A-9H. Functional properties of untethered P-D1ago. (A) Schematic representation of a D1R-mediated G protein-coupled inwardly rectifying potassium (GIRK) channel assay in HEK293T cells. Agonist-induced receptor activation results in the recruitment of a heterotrimeric G protein containing the chimeric Gα subunit (Gαis) followed by the release of Gβγ, which activates GIRK channels and enhances inward-current. […] (E) Schematic representation of a highly sensitive D1R-mediated cAMP accumulation assay in HEK293T cells. Agonist-induced D1R activation results in Gs/olfrecruitment followed by the binding of its Gα subunit to adenylate cyclase (AC), which enhances the conversion of ATP to cAMP. cAMP binds the bioluminescence resonance energy transfer 1 (BRET′)-based cAMP sensor CAMYEL^87, resulting in a conformational change in its Epac domain that increases the distance and decreases BRET^1 between the donor Renilla luciferase (Rluc) and the acceptor YFP. […] Optimization and characterization of the D1R MP

D1R and D5R = assay: Open field test, bilateral dStr-infusion of SKF82958 in D1-Cre mice; type: in vivo
Experimental: FIGS. 21A-21K. […] (A) An infusion of SKF82958 directly to the dorsal striatum (dStr) activates D1R and D5R in various cell types of this brain area and could diffuse into other brain areas. (B) Time course of the effect of a bilateral dStr-infusion of SKF82958 (400 nL per hemisphere) on the locomotion of D1-Cre mice in an open field. (C) Average velocity in the last 10 minutes of the open field test. one-way ANOVA, F = 14.3, Bonferroni, ^∗∗p < 0.01, ^∗∗∗p < 0.001. n = 5 mice per condition. (D) Time to maximum locomotion with SKF82958 or MP-D1ago. unpaired two-sided t-test, ^∗∗∗∗p < 0.0001. n = 5 for SKF82958, n = 7 mice for MP-D1ago. (E) Example movement dynamics of a mouse treated with vehicle or 100 µg SKF82958. Shown for SKF82958-treated mice is the (F) average percent of the time in motion, (G) average initiations per second, (H) average movement bout duration, and (I) the average maximum movement bout velocity. […] Bonferroni, ^∗p < 0.05, ^∗∗p < 0.01. n = 5 mice. (J) Representative coronal brain slice from a mouse infused with SKF82958. grey bar = 1 mm. blue = DAPI staining. (K) Summary of cannula locations for individual mice.

| photoactivation of D1R by P-D1ago tethered to the M in the presence of LE300 (D1R) | SMILES | duration of the movement bouts (D1R and D5R) | movement initiation (D1R and D5R) | percentage of the time in motion (D1R and D5R) | locomotion in an open field (D1R and D5R; 400 nL per hemisphere) |
| --- | --- | --- | --- | --- | --- |
| 3.3 ± 3.3% | CN1CCc2ccccc2Cc2[nH]c3ccccc3c2CC1 [LE300, reference compound] |  |  |  |  |
|  | C=CCN1CCc2c(cc(O)c(O)c2Cl)C(c2ccccc2)C1 (centres unmarked) [SKF82958] | increased | increased | increased the percentage of the time that the mice were in motion | enhanced locomotion |
